# Laboratory results: US20250082761A1, “DUAL-TARGETED RNA POLYMERASE INHIBITORS: CONJUGATES OF BENZOXAZINO- AND SPIRO-RIFAMYCINS WITH N ALPHA-AROYL-N-ARYL-[…]” (priority 2021, published 2025)
# Key:
# CYP3A4 = test: in vitro; conditions: male, human, hepatocytes
# [1] = tested on: Mycobacterium tuberculosis H37Rv; test: microbe, parasite or virus in culture; type: cell-based; conditions: read-out: antibacterial activity M. tuberculosis H37Rv MIC
# [2] = tested on: Mycobacterium avium ATCC 25291; test: Microplate Alamar Blue MIC assay, M. avium; type: cell-based; conditions: unit not given
# [3] = tested on: Mycobacterium abscessus IDR-1400012185; type: cell-based; set-up: unit not given here
compound,measurement,setting,value
"[2H]C([2H])(c1ccccc1)C(NC(=O)c1ccccc1F)C(=O)Nc1cc(F)ccc1N1CCC2(CC1)N=C1C(=C3NC(=O)/C(C)=C\C=C\[C@H](C)[C@H](O)[C@@H](C)[C@@H](O)[C@@H](C)[C@H](OC(C)=O)[C@H](C)[C@@H](OC)/C=C/O[C@]4(C)Oc5c(C)c(O)c(c1c5C4=O)C3=O)N2 (stereo partly drawn) [IX-515, spirorifamycin S-(IX-513) conjugate]",IC50,CYP3A4,> 10 µM
same,MIC,[1],0.031 µg/mL
same,antibacterial activity M. avium ATCC 25291,[2],0.78
same,antibacterial activity M. abscessus IDR-1400012185,[3],6.25
"[2H]C([2H])(c1ccccc1)[C@@H](NC(=O)c1ccccc1F)C(=O)Nc1cc(F)ccc1N1CCN(c2cc(O)c3nc4c5c6c7c(C)c(O)c5c(=O)c(c-4oc3c2)NC(=O)/C(C)=C\C=C\[C@H](C)[C@H](O)[C@@H](C)[C@@H](O)[C@@H](C)[C@H](O)[C@H](C)[C@@H](OC)/C=C/O[C@@](C)(O7)C6=O)CC1 [IX-519a, desacetyl-3′-hydroxy-benzoxazinorifamycin S-(IX-370a) conjugate]",MIC,[1],0.024 µg/mL
"CO[C@H]1/C=C/O[C@@]2(C)Oc3c(C)c(O)c4c(O)c(c(/C=N/N5CCN(C)CC5)c(O)c4c3C2=O)NC(=O)/C(C)=C\C=C\[C@H](C)[C@H](O)[C@@H](C)[C@@H](O)[C@@H](C)[C@H](OC(C)=O)[C@@H]1C [rifampin, reference compound]",MIC,[1],0.063 µg/mL
same,antibacterial activity M. avium ATCC 25291,[2],0.024
same,antibacterial activity M. abscessus IDR-1400012185,[3],1.56
"[2H]C([2H])(c1ccccc1)[C@@H](NC(=O)c1ccccc1F)C(=O)Nc1cc(F)ccc1N1CCN(c2cc(O)c3nc4c5c6c7c(C)c(O)c5c(=O)c(c-4oc3c2)NC(=O)/C(C)=C\C=C\[C@H](C)[C@H](O)[C@@H](C)[C@@H](O)[C@@H](C)[C@H](OC(C)=O)[C@H](C)[C@@H](OC)/C=C/O[C@@](C)(O7)C6=O)CC1 [IX-511a, 3'-hydroxy-benzoxazinorifamycin S-(IX-370a) conjugate]",IC50,CYP3A4,10 µM
same,MIC,[1],0.002 µg/mL
same,antibacterial activity M. avium ATCC 25291,[2],0.024
same,antibacterial activity M. abscessus IDR-1400012185,[3],1.56
"[2H]C([2H])(c1ccccc1)[C@@H](NC(=O)c1ccccc1F)C(=O)Nc1cc(F)ccc1N1CCN(c2ccc3nc4c5c6c7c(C)c(O)c5c(=O)c(c-4oc3c2)NC(=O)/C(C)=C\C=C\[C@H](C)[C@H](O)[C@@H](C)[C@@H](O)[C@@H](C)[C@H](OC(C)=O)[C@H](C)[C@@H](OC)/C=C/O[C@@](C)(O7)C6=O)CC1 [IX-516a, benzoxazinorifamycin S-(IX-370a) conjugate]",IC50,CYP3A4,10 µM
same,MIC,[1],0.031 µg/mL
same,antibacterial activity M. abscessus IDR-1400012185,[3],3.13
